According to patent US7745489B2, “Compositions and methods for inhibition of phospholipase A2 mediated inflammation” (The Regents of the University of California, priority 2002, dated 2010):
Entries after “also recorded” stand apart in the source; their conditions may differ.

Target: T1, cPLA2 (Homo sapiens, UniProt P47712)
T1 sequence (P47712 1-749): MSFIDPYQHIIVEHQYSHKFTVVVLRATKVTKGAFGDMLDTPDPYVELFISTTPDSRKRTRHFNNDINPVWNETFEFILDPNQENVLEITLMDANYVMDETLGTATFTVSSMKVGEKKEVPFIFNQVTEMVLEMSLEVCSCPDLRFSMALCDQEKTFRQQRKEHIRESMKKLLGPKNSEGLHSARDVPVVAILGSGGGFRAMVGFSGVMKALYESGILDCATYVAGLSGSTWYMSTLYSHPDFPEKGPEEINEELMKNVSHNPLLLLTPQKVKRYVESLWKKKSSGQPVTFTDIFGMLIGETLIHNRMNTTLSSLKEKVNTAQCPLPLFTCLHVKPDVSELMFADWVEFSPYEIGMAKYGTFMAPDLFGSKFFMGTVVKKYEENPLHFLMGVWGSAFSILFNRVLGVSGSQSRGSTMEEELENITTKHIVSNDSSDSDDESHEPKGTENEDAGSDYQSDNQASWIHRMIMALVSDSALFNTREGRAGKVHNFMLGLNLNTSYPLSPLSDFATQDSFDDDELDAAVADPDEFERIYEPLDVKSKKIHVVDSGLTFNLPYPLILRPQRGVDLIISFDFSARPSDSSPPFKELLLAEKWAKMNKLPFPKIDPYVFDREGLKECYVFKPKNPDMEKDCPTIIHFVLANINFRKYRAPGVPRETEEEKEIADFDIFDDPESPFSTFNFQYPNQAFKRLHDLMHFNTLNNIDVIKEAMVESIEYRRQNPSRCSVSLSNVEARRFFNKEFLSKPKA
Experiment: cPLA2 activity on TX-100/PAPC mixed micelles, inhibition by 2-oxoamides
Assay type: biochemical
Details: for XI(50) (mole fraction) / Highest Conc. (mole fraction) w/ % inhibition: Table 2, iPLA2; for Inhibitory potency relative to OA4 (fold less potent): cPLA2, compared with OA4; for XI(50): mixed micelles TX-100 400 μM, PAPC 97 μM, PIP2 3 μM (0.6 mole %); for Inhibition of cPLA2: result in words

| XI(50) (mole fraction) | Inhibition of cPLA2 | SMILES | other results |
| --- | --- | --- | --- |
| 0.068 ± 0.005 mole fraction |  | CCCCCCCCCCC(=O)C(=O)N[C@H](CCCC)CCC(=O)O [OA7, (4R)-4-[(2-Oxododecanoyl)amino]octanoic acid] | XI(50): 0.068±0.005 mole fraction |
| 0.035 ± 0.016 mole fraction |  | CCCCCCCCCCCCCC(=O)C(=O)N[C@H](CCC(=O)O)Cc1ccccc1 [OA9, (4R)-4-(2-Oxo-pentadecanoylamino)-5-phenyl-pentanoic Acid] |  |
| 0.017 ± 0.006 mole fraction |  | CCCCCCCCCCCCCC(=O)C(=O)N[C@H](CCC(=O)O)CC(C)C [OA12, (4R)-6-Methyl-4-(2-oxo-pentadecanoylamino)-heptanoic Acid] |  |
| 0.033 ± 0.013 mole fraction |  | CCCCCCCCCCC(=O)C(=O)N[C@H](CCC(=O)O)CC(C)C [OA13, (4R)-6-Methyl-4-(2-oxo-dodecanoylamino)-heptanoic Acid] |  |
|  | essentially no measurable inhibition | CCCCCCCCCCC(=O)C(=O)N[C@H](CCC(=O)O)C(=O)NCC [OA31, 4-Ethylcarbamoyl-4-(R)-(2-oxo-dodecanoylamino)-butyric Acid] |  |
|  | essentially no measurable inhibition | CCCCCCCCCCC(=O)C(=O)N[C@H](CCC(=O)O)COC(=O)NCC [OA32, 5-ethylcarbamoyloxy-4-(R)-(2-oxo-dodecanoylamino)-pentanoic Acid] |  |
|  | do not inhibit | COC(=O)CCCNC(=O)C(=O)CCCc1ccccc1 [OA34] |  |
|  | lack of inhibition | O=C(O)CCCNC(=O)C(=O)CCCCc1ccccc1 [OA35, 4-(2-Oxo-6-phenyl-hexanoylamino)-butyric Acid] |  |
|  | lack of inhibition | O=C(O)CCCNC(=O)C(=O)CCCc1ccccc1 [OA36, 4-(2-Oxo-5-phenyl-pentanoylamino)-butyric Acid] |  |

Second part, the compound before the results:

| SMILES | XI(50) (mole fraction) | Inhibition of cPLA2 | other results |
| --- | --- | --- | --- |
| CCCCCCCCCCCCCC(=O)C(=O)N[C@@H](CCCC)CC(=O)O [OA3, (3S)-(2-Oxo-pentadecanoylamino)-heptanoic Acid] | 0.027 ± 0.004 mole fraction |  | Inhibitory potency relative to OA4 (fold less potent): around 3 fold |
| CCCCCCCCCCCCCC(=O)C(=O)N[C@@H](CCCC)CCCC(=O)O [OA5, (5S)-5-(2-Oxopentadecanoylamino)-nonanoic Acid] | 0.008 ± 0.003 mole fraction |  | Inhibitory potency relative to OA4 (fold less potent): essentially equivalent |
| CCCCCCCCCCC(=O)C(=O)N[C@@H](CCCC)CCCCC(=O)O [OA6, (6S)-6-(2-Oxo-dodecanoylamino)-decanoic Acid] | 0.018 ± 0.009 mole fraction |  | Inhibitory potency relative to OA4 (fold less potent): around 2 fold |
| CCNC(=O)C(=O)CC [OA8] |  |  | Highest Conc. (mole fraction) w/ % inhibition (at 0.02 mole fraction): 0.02; 22% ± 7% |
| CCOC[C@H](CCC(=O)O)NC(=O)C(=O)CC [OA10] | 0.045 ± 0.007 mole fraction |  | XI(50): 0.045±0.007 mole fraction |
| CCCCCCCCCCOC[C@@H](CCC(=O)O)NC(=O)C(=O)CCCCCCCCCC [OA11, (4R)-5-(Decyloxy)-4-[(2-oxododecanoyl)amino]pentanoic Acid] | 0.047 ± 0.006 mole fraction |  | XI(50): 0.047±0.006 mole fraction |
| CCCCCCCCCCCCCCC(=O)C(=O)N[C@@H](CCC(=O)O)C(=O)NCCCCCCCCCC [OA15, 4-Decylcarbamoyl-4-(S)-(2-oxo-hexadecanoylamino)-butyric Acid] | 0.044 ± 0.007 mole fraction | moderate level of inhibition |  |
| CCCCCCCCCCC(=O)C(=O)N[C@@H](CCC(=O)O)COC(=O)NCCCCCCCC [OA16, 5-octylcarbamoyloxy-4-(S)-(2-oxo-dodecanoylamino)-pentanoic Acid] |  | essentially no measurable inhibition | Highest Conc. (mole fraction) w/ % inhibition (at 0.091 mole fraction): 0.091, 60% |
| CCCCCCC(=O)C(=O)N[C@H](CCC(=O)O)Cc1ccccc1 [OA17, (4R)-4-(2-Oxo-octanoylamino)-5-phenyl-pentanoic Acid] |  |  | Highest Conc. (mole fraction) w/ % inhibition (at 0.091 mole fraction): 0.091; 24% |
| CCCCCCCCCCCCCC(=O)C(=O)N1CCCC1CCC(=O)O (centres unmarked) [OA18, 3-[1-(2-Oxo-pentadecanoyl)-pyrrolidin-2-yl]propionic Acid] |  |  | Highest Conc. (mole fraction) w/ % inhibition (at 0.091 mole fraction): 0.091; 24% |
| CCCCCCCCCCC(=O)C(=O)N[C@@H](CCC(=O)O)C(=O)NCC [OA29, 4-Ethylcarbamoyl-4-(S)-(2-oxo-dodecanoylamino)-butyric Acid] |  | did not inhibit; also recorded: essentially no measurable inhibition |  |
| CCCCCCCCCCC(=O)C(=O)N[C@@H](CCC(=O)O)COC(=O)NCC [OA30, 5-ethylcarbamoyloxy-4-(S)-(2-oxo-dodecanoylamino)-pentanoic Acid] |  | does not inhibit; also recorded: essentially no measurable inhibition |  |
